One experiment has as its target T1, IL-17A/A (Homo sapiens, UniProt Q16552).
T1 construct: purchased Genscript Z03228
T1 sequence (Q16552 24-155): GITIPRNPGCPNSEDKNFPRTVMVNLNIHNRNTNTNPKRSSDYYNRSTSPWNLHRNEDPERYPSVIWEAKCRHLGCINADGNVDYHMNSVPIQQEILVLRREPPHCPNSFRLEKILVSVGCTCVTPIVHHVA
The experiment in a line: IL-17A/A HEK-Blue cell assay (SEAP reporter). It is filed as cell-based. The settings on record: HEK-Blue IL-17A reporter cells, IL17A/A 5 ng/mL, 20 hours, SEAP read at A630; read-out: HEK-Blue IL17AA (IC50 for IL-17A/A inhibition).

The next experiment has as its target T2, IL-17A/F (Homo sapiens, UniProt Q16552+Q96PD4).
T2 construct: purchased R&D Systems
T2 sequence (Q16552 24-155): T1 sequence (Q16552 24-155)
T2 sequence (Q96PD4 31-163): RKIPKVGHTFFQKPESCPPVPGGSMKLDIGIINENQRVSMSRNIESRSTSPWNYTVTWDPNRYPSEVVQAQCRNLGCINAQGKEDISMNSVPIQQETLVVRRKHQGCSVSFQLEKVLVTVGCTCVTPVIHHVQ
The experiment in a line: IL-17A/F HEK-Blue cell assay (SEAP reporter). Format: cell-based. The settings on record: HEK-Blue IL-17A reporter cells, IL17A/F 5 ng/mL, 20 hours, SEAP read at A630; read-out: HEK-Blue IL17AF (IC50 for IL-17A/F inhibition).

Take `O=C(N[C@H](c1cn2nc(C[C@H]3C[C@@H](C(F)(F)F)CNC3=O)c(C3CCOC3)nc2n1)C1CCC(F)(F)CC1)c1nonc1C1CC1` (single isomer, unassigned) [Compound 135]: the IC50 was < 100 nM at IL-17A/A and > 1000 nM on IL-17A/F.
As to `CCn1nccc1C(=O)N[C@H](c1cn2nc(C[C@H]3C[C@@H](C(F)(F)F)CNC3=O)c(C3CCOC3)nc2n1)[C@H]1CC[C@H](C)CC1` (single isomer, unassigned) [Compound 138], the IC50 on IL-17A/A and at IL-17A/F was < 100 nM each time.
Regarding `CCn1nccc1C(=O)N[C@H](c1cn2nc(C[C@H]3C[C@@H](C(F)(F)F)CNC3=O)c(C3CCOC3)nc2n1)[C@H]1CC[C@H](C)CC1` (single isomer, unassigned) [Compound 139], the IC50 on IL-17A/A and on IL-17A/F was < 100 nM throughout.
In the case of `O=C(N[C@H](c1cn2nc(C[C@H]3C[C@@H](C(F)(F)F)CNC3=O)c(C3CCOCC3)nc2n1)C1CCC(F)(F)CC1)c1conc1C1CC1(F)F` (single isomer, unassigned) [Compound 144], the IC50 on IL-17A/A is < 100 nM; at IL-17A/F, 100 to 1000 nM.
`O=C(N[C@H](c1cn2nc(C[C@H]3C[C@@H](C(F)(F)F)CNC3=O)c(C3CCOCC3)nc2n1)C1CCC(F)(F)CC1)c1conc1C1CC1(F)F` (single isomer, unassigned) [Compound 145]: the IC50 is < 100 nM at IL-17A/A and 100 to 1000 nM on IL-17A/F.
Taken in the same sequence, the figures for `CCn1nccc1C(=O)N[C@@H](COC(C)(C)C(F)(F)F)c1cn2nc(C[C@H]3C[C@@H](C(F)(F)F)CNC3=O)c(C3CCOCC3)nc2n1` (single isomer, unassigned) [Compound 159] were < 100 nM and > 1000 nM.
For the compound `CCn1nccc1C(=O)N[C@@H](CCC(C)(C)C(F)(F)F)c1cn2nc(C[C@H]3C[C@@H](C(F)(F)F)CNC3=O)c(C3CCOCC3)nc2n1` (single isomer, unassigned) [Compound 160], the IC50 at IL-17A/A was < 100 nM; on IL-17A/F, 100 to 1000 nM.
For the compound `CCn1nccc1C(=O)N[C@H](c1cn2nc(C[C@H]3C[C@@H](C(F)(F)F)CNC3=O)c(C3CCOC(C)(C)C3)nc2n1)C1CCC(F)(F)CC1` (single isomer, unassigned) [Compound 163], the IC50 at IL-17A/A is < 100 nM; at IL-17A/F, 100 to 1000 nM.
Take `CCn1nccc1C(=O)N[C@H](c1cn2nc(C[C@H]3C[C@@H](C(F)(F)F)CNC3=O)c(C3(C)CCCOC3)nc2n1)C1CCC(F)(F)CC1` (single isomer, unassigned) [Compound 165]: the figures for the IC50 on IL-17A/A and on IL-17A/F were < 100 nM and 100 to 1000 nM, respectively.
Taken in the same sequence, the figures for `CCn1nccc1C(=O)N[C@H](c1cn2nc(C[C@H]3C[C@@H](C(F)(F)F)CNC3=O)c(C3(C)CCOC3)nc2n1)C1CCC(F)(F)CC1` (single isomer, unassigned) [Compound 166] were < 100 nM and 100 to 1000 nM.
In the case of `CCn1nccc1C(=O)N[C@H](c1cn2nc(C[C@H]3C[C@@H](C(F)(F)F)CNC3=O)c(C(C)C(F)(F)F)nc2n1)C1CCC(F)(F)CC1` (single isomer, unassigned) [Compound 174], the IC50 on IL-17A/A is < 100 nM; on IL-17A/F, 100 to 1000 nM.
Taken in the same sequence, the figures for `CCn1nccc1C(=O)N[C@H](c1cn2nc(C[C@H]3C[C@@H](C(F)(F)F)CNC3=O)c(C(C)C(F)(F)F)nc2n1)C1CCC(F)(F)CC1` (single isomer, unassigned) [Compound 175] were < 100 nM and 100 to 1000 nM.
Taken in the same sequence, the figures for `CCn1nccc1C(=O)N[C@H](c1cn2nc(C[C@H]3C[C@@H](C(F)(F)F)CNC3=O)c(C3CCOC(C)(C)C3)nc2n1)C1CCC(F)(F)CC1` (single isomer, unassigned) [Compound 176] were < 100 nM and < 100 nM.
For the compound `CCn1nccc1C(=O)N[C@H](c1cn2nc(C[C@H]3C[C@@H](C(F)(F)F)CNC3=O)c(C3(C)CCCOC3)nc2n1)C1CCC(F)(F)CC1` (single isomer, unassigned) [Compound 177], the IC50 at IL-17A/A was < 100 nM; at IL-17A/F it was 100 to 1000 nM.
On the same counts, the results for `CCn1nccc1C(=O)N[C@H](c1cn2nc(C[C@H]3C[C@@H](C(F)(F)F)CNC3=O)c(C3(C)CCOC3)nc2n1)C1CCC(F)(F)CC1` (single isomer, unassigned) [Compound 178] are < 100 nM and > 1000 nM.
Taken in the same sequence, the figures for `CCn1nccc1C(=O)N[C@H](c1cn2nc(C[C@H]3C[C@@H](C(F)(F)F)CNC3=O)c(C3CCOC3)nc2n1)[C@H]1CCCC(F)(F)C1` (single isomer, unassigned) [Compound 203] were < 100 nM and < 100 nM.
On to `CCn1nccc1C(=O)N[C@H](c1cn2nc(CC3C[C@@H](C(F)(F)F)CNC3=O)c(N3CCO[C@@H](C)C3)nc2n1)[C@@H]1CCCC(F)(F)C1` (single isomer, unassigned) [Compound 207], for which the IC50 at IL-17A/A is < 100 nM; on IL-17A/F it was 100 to 1000 nM.
In the case of `CCn1nccc1C(=O)N[C@H](c1cn2nc(CC3C[C@@H](C(F)(F)F)CNC3=O)c(N3CCO[C@@H](C)C3)nc2n1)[C@@H]1CCCC(F)(F)C1` (single isomer, unassigned) [Compound 208], the IC50 is < 100 nM on IL-17A/A and 100 to 1000 nM at IL-17A/F.
Taken in the same sequence, the figures for `O=C(N[C@H](c1cn2nc(C[C@H]3C[C@@H](C(F)(F)F)CNC3=O)c(C3CCCOC3)nc2n1)[C@@H]1CCCC(F)(F)C1)c1nonc1C1CC1` (single isomer, unassigned) [Compound 209] were < 100 nM and > 1000 nM.
Taken in the same sequence, the figures for `O=C(N[C@H](c1cn2nc(C[C@H]3C[C@@H](C(F)(F)F)CNC3=O)c(C3CCCOC3)nc2n1)[C@@H]1CCCC(F)(F)C1)c1nonc1C1CC1` (single isomer, unassigned) [Compound 210] were < 100 nM and 100 to 1000 nM.
On the same counts, the results for `CCn1nccc1C(=O)N[C@@H](CCC(C)(C)C(F)(F)F)c1cn2nc(C[C@H]3C[C@@H](C(F)(F)F)CNC3=O)c(C3CCOCC3)nc2n1` (single isomer, unassigned) [Compound 217] are < 100 nM and > 1000 nM.
With `CCn1nccc1C(=O)N[C@H](c1cn2nc(C[C@H]3C[C@@H](C(F)(F)F)CNC3=O)c(C[C@@H]3CCOC3)nc2n1)C1CCC(F)(F)CC1` (single isomer, unassigned) [Compound 224], the IC50 at IL-17A/A is < 100 nM; at IL-17A/F, 100 to 1000 nM.
Taken in the same sequence, the figures for `CCn1nccc1C(=O)N[C@H](c1cn2nc(C[C@H]3C[C@@H](C(F)(F)F)CNC3=O)c(C[C@H]3CCOC3)nc2n1)C1CCC(F)(F)CC1` (single isomer, unassigned) [Compound 225] were < 100 nM and 100 to 1000 nM.
Taken in the same sequence, the figures for `CCn1nccc1C(=O)N[C@H](c1cn2nc(C[C@H]3C[C@@H](C(F)(F)F)CNC3=O)c([C@@H](C)N3CCOCC3)nc2n1)C1CCC(F)(F)CC1` (single isomer, unassigned) [Compound 227] were < 100 nM and 100 to 1000 nM.
On to `CCn1nccc1C(=O)N[C@H](c1cn2nc(C[C@H]3C[C@@H](C(F)(F)F)CNC3=O)c(CN3CCOC[C@H]3C)nc2n1)C1CCC(F)(F)CC1` (single isomer, unassigned) [Compound 231], for which the results for the IC50 at IL-17A/A and on IL-17A/F were < 100 nM and 100 to 1000 nM, respectively.
Taken in the same sequence, the figures for `CCn1nccc1C(=O)N[C@H](c1cn2nc(C[C@H]3C[C@@H](C(F)(F)F)CNC3=O)c(CN3CCOCC3C)nc2n1)C1CCC(F)(F)CC1` (single isomer, unassigned) [Compound 232] were < 100 nM and 100 to 1000 nM.
On the same counts, the results for `CCn1nccc1C(=O)N[C@H](c1cn2nc(C[C@H]3C[C@@H](C(F)(F)F)CNC3=O)c([C@H](C)C3CCOCC3)nc2n1)C1CCC(F)(F)CC1` (single isomer, unassigned) [Compound 251] are < 100 nM and > 1000 nM.
On the same counts, the results for `CCn1nccc1C(=O)N[C@H](c1cn2nc(C[C@H]3C[C@@H](C(F)(F)F)CNC3=O)c([C@@H](C)C3CCOCC3)nc2n1)C1CCC(F)(F)CC1` (single isomer, unassigned) [Compound 252] are < 100 nM and 100 to 1000 nM.
As for `CCn1nccc1C(=O)N[C@H](c1cn2nc(C[C@H]3C[C@@H](C(F)(F)F)CNC3=O)c([C@@H]3CCC(C)(C)OC3)nc2n1)C1CCC(F)(F)CC1` (single isomer, unassigned) [Compound 256], the IC50 on IL-17A/A is < 100 nM; on IL-17A/F, 100 to 1000 nM.
On the same counts, the results for `CCn1nccc1C(=O)N[C@H](c1cn2nc(C[C@H]3C[C@@H](C(F)(F)F)CNC3=O)c([C@H]3COCCC3(F)F)nc2n1)C1CCC(F)(F)CC1` (single isomer, unassigned) [Compound 257] are < 100 nM and 100 to 1000 nM.
On the same counts, the results for `CCn1nccc1C(=O)N[C@H](c1cn2nc(C[C@H]3C[C@@H](C(F)(F)F)CNC3=O)c([C@H]3CCC(C)(C)OC3)nc2n1)C1CCC(F)(F)CC1` (single isomer, unassigned) [Compound 258] are < 100 nM and 100 to 1000 nM.
Taken in the same sequence, the figures for `CCn1nccc1C(=O)N[C@H](c1cn2nc(C[C@H]3C[C@@H](C(F)(F)F)CNC3=O)c(C3COCCC3(F)F)nc2n1)C1CCC(F)(F)CC1` (single isomer, unassigned) [Compound 259] were < 100 nM and < 100 nM.
For the compound `Cn1nccc1C(=O)N[C@H](c1cn2nc(C[C@H]3C[C@@H](C(F)(F)F)CNC3=O)c([C@H]3CCCOC3)nc2n1)C1CCC(F)(F)CC1` (single isomer, unassigned) [Compound 263], the IC50 was < 100 nM at IL-17A/A and > 1000 nM on IL-17A/F.
